Test results published in PubChem BioAssay (NCI).
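Grown in 96-well plates, cells were treated for 48 hours with each compound at five concentrations. Insufficient inhibition: endpoint recorded as highest concentration tested. TGI marks complete inhibition of growth.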

Experiments:
Assay in all cases: DTP human tumour cell line panel, 48 h
ACHN renal = system: ACHN renal
CAKI-1 renal = system: CAKI-1 renal
HOP-92 NSCLC = system: HOP-92 NSCLC
MDA-MB-435 = system: MDA-MB-435
SW-620 colon = system: SW-620 colon
EKVX NSCLC = system: EKVX NSCLC
A498 renal = system: A498 renal
SK-MEL-5 melanoma = system: SK-MEL-5 melanoma
NCI-H460 lung = system: NCI-H460 lung
HT29 colon = system: HT29 colon
PC-3 prostate = system: PC-3 prostate
NCI-H522 lung = system: NCI-H522 lung
UO-31 renal = system: UO-31 renal
SNB-75 CNS = system: SNB-75 CNS
OVCAR-8 ovarian = system: OVCAR-8 ovarian
CCRF-CEM leukemia = system: CCRF-CEM leukemia
SR leukemia = system: SR leukemia
HL-60(TB) leukemia = system: HL-60(TB) leukemia
SNB-19 CNS = system: SNB-19 CNS
SF-539 CNS = system: SF-539 CNS
K-562 leukemia = system: K-562 leukemia
UACC-62 melanoma = system: UACC-62 melanoma
MDA-N = system: MDA-N
HS 578T breast = system: HS 578T breast
NCI-H226 lung = system: NCI-H226 lung
MOLT-4 leukemia = system: MOLT-4 leukemia
MCF7 breast = system: MCF7 breast
U251 CNS = system: U251 CNS
RXF 393 renal = system: RXF 393 renal
OVCAR-5 ovarian = system: OVCAR-5 ovarian
DU-145 prostate = system: DU-145 prostate
A549 NSCLC = system: A549 NSCLC
SK-MEL-28 melanoma = system: SK-MEL-28 melanoma
TK-10 renal = system: TK-10 renal
786-0 renal = system: 786-0 renal
SK-MEL-2 melanoma = system: SK-MEL-2 melanoma
HCT-116 colon = system: HCT-116 colon
HCT-15 colon = system: HCT-15 colon
LOX IMVI melanoma = system: LOX IMVI melanoma
SF-268 CNS = system: SF-268 CNS
NCI-H23 lung = system: NCI-H23 lung
UACC-257 melanoma = system: UACC-257 melanoma
HCC-2998 colon = system: HCC-2998 colon
SK-OV-3 ovarian = system: SK-OV-3 ovarian
SN12C renal = system: SN12C renal
HOP-62 NSCLC = system: HOP-62 NSCLC
M14 melanoma = system: M14 melanoma
MALME-3M melanoma = system: MALME-3M melanoma
COLO 205 colon = system: COLO 205 colon
T-47D breast = system: T-47D breast
SF-295 CNS = system: SF-295 CNS
OVCAR-3 ovarian = system: OVCAR-3 ovarian
KM12 colon = system: KM12 colon
RPMI-8226 leukemia = system: RPMI-8226 leukemia
NCI/ADR-RES ovarian = system: NCI/ADR-RES ovarian
MDA-MB-231 breast = system: MDA-MB-231 breast

O=C1OC(C2=CC(=O)c3ccccc3C2=O)C(Cl)=C1Cl (stereo unspecified)
TGI (ACHN renal): 33.6 µM
TGI (CAKI-1 renal): > 100 µM
TGI (HOP-92 NSCLC): > 100 µM
TGI (MDA-MB-435): > 100 µM
TGI (SW-620 colon): 94.1 µM
TGI (EKVX NSCLC): > 100 µM
TGI (A498 renal): > 100 µM
TGI (SK-MEL-5 melanoma): > 100 µM
TGI (NCI-H460 lung): > 100 µM
TGI (HT29 colon): > 100 µM
TGI (PC-3 prostate): 75.5 µM
TGI (NCI-H522 lung): 39.3 µM
TGI (UO-31 renal): 31.8 µM
TGI (SNB-75 CNS): > 100 µM
TGI (OVCAR-8 ovarian): 29.8 µM
TGI (CCRF-CEM leukemia): 50.9 µM
TGI (SR leukemia): 70.3 µM
TGI (HL-60(TB) leukemia): > 100 µM
TGI (SNB-19 CNS): > 100 µM
TGI (SF-539 CNS): 72.7 µM
TGI (K-562 leukemia): 83.3 µM
TGI (UACC-62 melanoma): 39.5 µM
TGI (MDA-N): > 100 µM
TGI (HS 578T breast): > 100 µM
TGI (NCI-H226 lung): 95.3 µM
TGI (MOLT-4 leukemia): > 100 µM
TGI (MCF7 breast): 44.8 µM
TGI (U251 CNS): 86 µM
TGI (RXF 393 renal): 52.5 µM
TGI (OVCAR-5 ovarian): > 100 µM
TGI (DU-145 prostate): > 100 µM
TGI (A549 NSCLC): > 100 µM
TGI (SK-MEL-28 melanoma): 96.2 µM
TGI (TK-10 renal): > 100 µM
TGI (786-0 renal): 43.2 µM
TGI (SK-MEL-2 melanoma): 35.4 µM
TGI (HCT-116 colon): > 100 µM
TGI (HCT-15 colon): 41 µM
TGI (LOX IMVI melanoma): 49.9 µM
TGI (SF-268 CNS): 79.2 µM
TGI (NCI-H23 lung): 59.4 µM
TGI (UACC-257 melanoma): > 100 µM
TGI (HCC-2998 colon): 61.3 µM
TGI (SK-OV-3 ovarian): > 100 µM
TGI (SN12C renal): 59 µM
TGI (HOP-62 NSCLC): > 100 µM
TGI (M14 melanoma): > 100 µM
TGI (MALME-3M melanoma): 57.9 µM
TGI (COLO 205 colon): > 100 µM
TGI (T-47D breast): 83.7 µM
TGI (SF-295 CNS): > 100 µM
TGI (OVCAR-3 ovarian): > 100 µM
TGI (KM12 colon): > 100 µM
TGI (RPMI-8226 leukemia): 47.3 µM
TGI (NCI/ADR-RES ovarian): > 100 µM
TGI (MDA-MB-231 breast): 36 µM
